Reference: US20250127167A1, “ANTIMICROBIAL PEPTIDES” (priority 2021, published 2025)
Entries after “also recorded” stand apart in the source; their conditions may differ. Like-named read-outs stand apart in the source and are kept apart here. Where a SMILES comes first, the peptide text is derived from it. [ ]: non-standard residue; d: D form. Phe(4-F) = N[C@@H](Cc1ccc(F)cc1)C(=O)O; Dopa = N[C@@H](Cc1ccc(O)c(O)c1)C(=O)O

Key:
T4 bacteriophage [1] = system: T4 bacteriophage
Protocol: All the tripeptide powders were firstly dissolved into ethanol and diluted by TDW. The solutions were stirring for 3 h (150 rpm, room temperature) for complete self-assembly. The final concentration is 10 mg/mL. […] As a control, single amino acids (L-DOPA, L-Phenylalanine, and 4-Fluoro-L-phenylalanine) were also used to examine their antiviral activity. To further evaluate the antiviral activity for the peptide assemblies, the antiviral MIC for traditional Ag and Cu nanoparticles were also tested. The stock solutions were two-fold diluted using LB phage to obtain a series of peptide concentrations until the lowest concentration needed was achieved. Next, the 100 μL T4 bacteriophage (10^5 PFU/mL) and 100 μL diluted peptide solutions were transferred into 800 μL LB phage and then the samples were shaken at 150 rpm at room temperature. After 24 h incubation, the samples were centrifuged at 14000 g for 10 min to precipitate the peptide particles. Supernatants were collected and then 10-fold diluted once. Then, the 20 μL supernatants were mixed with 25 μL bacteria (E. coli. ATCC11303) in 1 mL warm 0.6% agarose. Then the mixture was spread out on 1.5% LB agar to form a double agar layer. The plate was incubated at 37° C. for 18 h to form the plaques. The lowest concentration of peptides that prevented virus growth is defined as the antiviral minimum inhibitory concentration (MIC).
A series of two-fold diluted peptide solutions (1000, 500, 250, 125, 62.5, 31.25, 15.625, and 7.8125 µg/mL) was prepared to measure the antiviral MIC. Next, 100 μL T4 bacteriophage (10^5 PFU/mL) and 100 μL diluted peptide solutions were transferred into 800 μL LB phage; then, the samples were shaken at 150 rpm at room temperature. After 24 h incubation, the samples were centrifuged at 14000×g for 10 min to precipitate the peptide particles. Supernatants were collected and then 10-fold diluted once. Next, the 20 μL supernatants were mixed with 25 μL bacteria (E. coli. ATCC11303) in 1 mL of warm 0.6% agarose. Then, the mixture was spread out on 1.5% LB agar to form a double agar layer. The plate was incubated at 37° C. for 18 h to form plaques. The lowest concentration of peptides that prevented virus growth is defined as the antiviral minimum inhibitory concentration (MIC). L-DOPA, L-phenylalanine, L-Phe(4F), Phe(4F)-Phe(4F), and diphenylalanine were used as controls.

T4 bacteriophage [2] = assay: Antiviral activity for coatings against T4 bacteriophage (bacteriophage plaque assay); type: cell-based, Escherichia coli bacteriophage T4; details: for virus titer of bacteriophage T4 on dipeptide coatings: 10 mg/mL drop-casted three times, bare glass 29000±2000 PFU/mL; for virus titer of bacteriophage T4 on dipeptide coatings / viral titer of T4 bacteriophage / virus titer of T4 bacteriophage: 24 h; for reduction of the viral titer by dipeptide coatings: versus bare glass; for virus titer of T4 bacteriophage: 3-layer coating on glass, bare glass 13579±2839
Protocol: The antiviral activity performance was measured according to work by Kim et al. and Matsumoto et al. with some modification. The peptide coatings were prepared as described before. We used T4 bacteriophage as the virus when we measured the antiviral activity. Bacteriophage suspension was propagated on E. coli (ATCC 11303) according to ISO 18061, which was grown as the host strain. The mixture obtained by adding 100 μL of fresh T4 phage to an overnight culture of E. coli was incubated for 4 h in a 10 mL LB phage at 37° C. After multiplication, the virus was collected by centrifugation at 4000×g for 10 min at room temperature. The concentration of T4 bacteriophage was measured using the soft agar overlay (double-agar layer) plaque assay method. The supernatant containing the bacteriophage culture was filtrated through cellulose acetate filters (Millipore Acrodisc; the pore sizes were 0.45 μm and 0.22 μm) before use (the final concentration of bacteriophage was 10^9 PFU/mL).
Ten decimal serial dilutions of the virus suspension were prepared by LB phage. The aqueous suspensions for the E. coli and T4 bacteriophage inactivation experiments contained sample surfaces having dimensions of 1*1 cm and T4 phage at 1.0×10^6 plaque-forming units (PFU)/mL. As a positive control, we also added 16 μL 1.0×10^6 plaque-forming units (PFU)/mL bacteriophage T4 on bare glass and then treated the surface by a UV irradiation (long wave ultraviolet 365 nm) for 3 h. Next, the phages were incubated under humid conditions at room temperature (25° C.) in a dark room for 24 h. After incubation, the phages were harvested by shaking with 2 mL SCDLP broth for 15 min to stop the incubation. The T4 in SCDLP bacteriophage was diluted with LB phage 10-fold. Subsequently, samples and bacteria were mixed with 0.6% agarose. Then the mixture was spread out on 1.5% LB agar to form a double agar layer. The plate was incubated at 37° C. for 18 h to form the plaques. The antiviral activity was defined and calculated as eq 2 below: The initial virus titer (No) and the virus titer after incubation (N) were calculated by counting the plaque number. For each sample, 9 repeats were performed to assess the antiviral activity.
The antiviral activity performance was measured according to our previous work. Briefly, 10 decimal serial dilutions of the virus suspension were prepared by LB phage. The aqueous suspensions for the E. coli and T4 bacteriophage inactivation experiments contained sample surfaces with dimensions of 1*1 cm and T4 phage at 1.0×106 plaque-forming units (PFU)/mL. Next, the phages were incubated under humid conditions at room temperature (25° C.) in a dark room for 24 h. After incubation, the phages were harvested by shaking them with 2 mL SCDLP broth for 15 min to stop the incubation. The T4 in the SCDLP bacteriophage was diluted with LB phage 10-fold. Subsequently, samples and bacteria were mixed with 0.6% agarose. Then, the mixture was spread out on 1.5% LB agar to form a double agar layer. The plate was incubated at 37° C. for 18 h to form the plaques. The antiviral activity was defined and calculated as follows: The initial virus titer (NO) and the virus titer after incubation (N) were calculated by counting the plaque number. For each sample, 9 repeats were performed to assess the antiviral activity.

Canine coronavirus (CCV) = type: cell-based; details: for log (TCID50/mL) of CCV: 3-layer coating, 3 h incubation, uncoated glass 4.77±0.12; for effect on CCV (in words): 3-layer coatings / controls
[3] = Water contact angle measurements of coated glass; type: physicochemical; details: for water contact angle after wiping: 3-layer coating, wiped at a load of 1 g
Protocol: Contact angle measurements were examined by using a Theta Lite optical tensiometer (Attension, Finland). Each experimental measurement consisted of three repeats.
(§1) To examine the coating stabilities, peptide coatings were immersed into TDW for 5 min or washed with 2 mL TDW three times and then dried at room temperature. X-ray photoelectron spectroscopy (XPS) analyses were performed for the immersed and washed coatings. Moreover, peptide coatings were wiped with a finger at a load of 1 g and then water contact angle measurements were performed using the same method as described in the Contact angle measurements section.

[4] = Stability of peptide coatings (XPS after immersing or washing); type: physicochemical; details: 3-layer coating
Protocol: X-ray photoelectron spectroscopy (XPS) analyses were performed by using an AXIS Ultra X-ray photoelectron spectrometer (Kratos Analytical, Ltd., Manchester, UK). The sample's take-off angle was 90°. The vacuum pressure in the analyzing chamber was maintained at 2×10^−9 Torr. High-resolution XPS spectra were collected for F is, O is, C is, and N is peaks with 20 eV pass energy and 0.1 eV step size. Data analyses were carried out using Kratos Vision data reducing processing software (Kratos Analytical, Ltd.) and Casa XPS (Casa Software, Ltd.).
as §1

fruit and plant viruses = assay: Antiviral activity against fruit viruses
Excerpt: The potential antiviral activity of DOPA-Phe(Br)—OH against fruit viruses and other microbial sources was also investigated.

[5] = Table 1, tripeptide assemblies, single amino acids and metal nanoparticles, 24 h incubation

## NC(=O)[C@H](Cc1ccc(F)cc1)NC(=O)[C@@H](N)Cc1ccc(O)c(O)c1 [DOPA-Phe(4F)-NH2] (H-[Dopa]-[Phe(4-F)]-NH2)
T4 bacteriophage [1]; in solution
  antiviral activity against T4 bacteriophage (in words): exhibited antiviral activity
T4 bacteriophage [1]; in solution, T4 bacteriophage
  Antiviral MIC: 62.5 µg/mL
T4 bacteriophage [2]
  virus titer of bacteriophage T4 on dipeptide coatings: no viruses were detected
  reduction of the viral titer by dipeptide coatings: ~4 logs

## COC(=O)[C@H](Cc1ccc(F)cc1)NC(=O)[C@H](Cc1ccc(F)cc1)NC(=O)[C@@H](N)Cc1ccc(O)c(O)c1 [DOPA-Phe(4F)-Phe(4F)-OMe] (H-[Dopa]-[Phe(4-F)]-[Phe(4-F)]-OMe; N-terminus assumed)
T4 bacteriophage [1]; [5]
  Antiviral MIC: 31 µg/mL
T4 bacteriophage [2]; 1 layer coating
  reduction of viral titer compared with bare glass: 79%
  reduction rate (log (N/No)) of virus titers: −0.7
T4 bacteriophage [2]; 1 layer coating on glass
  viral titer of T4 bacteriophage: 2610±369 PFU/mL
T4 bacteriophage [2]; 2 layers coating
  reduction of viral titer compared with bare glass: 91%
  reduction rate (log (N/No)) of virus titers: −1.1
T4 bacteriophage [2]; 2 layers coating on glass
  viral titer of T4 bacteriophage: 1111±201 PFU/mL
T4 bacteriophage [2]; 3-layer coating
  reduction of virus titers compared to the glass surfaces: 3 log
  reduction of virus titers compared to the stock solution: 6 log
T4 bacteriophage [2]
  virus titer of T4 bacteriophage: 3±6 PFU/mL
T4 bacteriophage [2]; 3 layer coating
  reduction of viral titer compared with bare glass: 99.9%
T4 bacteriophage [2]; 3 layers coating
  reduction rate (log (N/No)) of virus titers: −3.7
Canine coronavirus (CCV)
  log (TCID50/mL) of CCV: below the detection limit
[3]; 1 layer on glass, bare glass 12±2°
  water contact angle: 23±2 °
[3]; 2 layers on glass
  water contact angle: 34±2 °
[3]
  water contact angle after wiping: 33±1 °
[3]; 3 layers on glass
  water contact angle: 38±4 °
[4]
  XPS signals after immersing in TDW for 5 min or washing three times: did not decrease

## NC(=O)[C@H](Cc1ccccc1)NC(=O)[C@@H](N)Cc1ccc(O)c(O)c1 [DOPA-Phe-NH2] (H-[Dopa]-Phe-NH2; N-terminus assumed)
T4 bacteriophage [1]; 24 h
  Antiviral MIC: 125.00 µg/mL
T4 bacteriophage [1]; in solution
  antiviral activity against T4 bacteriophage (in words): exhibited antiviral activity
T4 bacteriophage [1]; in solution, T4 bacteriophage
  Antiviral MIC: 125 µg/mL
T4 bacteriophage [2]
  virus titer of bacteriophage T4 on dipeptide coatings: no viruses were detected
  reduction of the viral titer by dipeptide coatings: ~4 logs

## COC(=O)[C@H](Cc1ccccc1)NC(=O)[C@H](Cc1ccccc1)NC(=O)[C@@H](N)Cc1ccc(O)c(O)c1 [DOPA-Phe-Phe-OMe] (H-[Dopa]-Phe-Phe-OMe; N-terminus assumed)
T4 bacteriophage [1]; [5]
  Antiviral MIC: 62 µg/mL
T4 bacteriophage [2]; 3-layer coating
  reduction of virus titers compared to the glass surfaces: 0.2 log
T4 bacteriophage [2]
  virus titer of T4 bacteriophage: 8029±205 PFU/mL
T4 bacteriophage [2]; 3 layers coating
  reduction rate (log (N/No)) of virus titers: −0.2
Canine coronavirus (CCV)
  log (TCID50/mL) of CCV: below the detection limit
[3]
  water contact angle after wiping: 25±2 °
[3]; 3 layers on glass
  water contact angle: 29±1 °
[4]
  XPS signals after immersing in TDW for 5 min or washing three times: did not change appreciably

## N[C@@H](Cc1ccc(O)c(O)c1)C(=O)O [L-DOPA, 3,4-dihydroxy-L-phenylalanine]
T4 bacteriophage [1]; in solution, listed as DOPA
  antiviral activity against T4 bacteriophage (in words): did not show any antiviral activity
T4 bacteriophage [2]; drop-casted three times / deposited on glass, compared to a glass surface
  antiviral activity of drop-casted controls against T4 bacteriophage (in words): did not decrease the viral titers
Canine coronavirus (CCV)
  log (TCID50/mL) of CCV: 4.37±0.31 log (TCID50/mL)
  effect on CCV (in words): do not appreciably affect the viability of CCV
Canine coronavirus (CCV); listed as DOPA
  effect on CCV (in words): did not show any antiviral activity

## N[C@@H](Cc1ccc(F)cc1)C(=O)O [L-Phe(4F), 4-Fluoro-L-phenylalanine]
T4 bacteriophage [1]; in solution
  antiviral activity against T4 bacteriophage (in words): did not decrease the viral titer
T4 bacteriophage [1]; in solution, listed as 4-Fluoro-L-phenylalanine
  antiviral activity against T4 bacteriophage (in words): no antiviral activity

## N[C@@H](Cc1ccccc1)C(=O)O [L-Phe, L-phenylalanine]
T4 bacteriophage [1]; in solution, listed as L-Phenylalanine
  antiviral activity against T4 bacteriophage (in words): no antiviral activity
Canine coronavirus (CCV)
  effect on CCV (in words): did not show any antiviral activity

## DOPA-Phe(Br)—NH2
Fruit and plant viruses
  eradication of fruit and plant viruses: capable of eradicating fruit and plant viruses

## DOPA-Phe(Br)—OH
Fruit and plant viruses
  eradication of fruit and plant viruses: capable of eradicating fruit and plant viruses

## H-Phe-Phe-OH [Diphenylalanine]
T4 bacteriophage [1]; in solution, listed as Phe-Phe
  antiviral activity against T4 bacteriophage (in words): did not decrease the viral titer
T4 bacteriophage [1]; in solution, listed as diphenylalanine
  antiviral activity against T4 bacteriophage (in words): did not show any antiviral activity
T4 bacteriophage [2]
  antiviral activity of drop-casted controls against T4 bacteriophage (in words): did not decrease the viral titers; also recorded: did not exhibit antiviral activity
Canine coronavirus (CCV)
  log (TCID50/mL) of CCV: 4.67±0.42 log (TCID50/mL)
  effect on CCV (in words): do not appreciably affect the viability of CCV; also recorded: did not show any antiviral activity

## Phe(4F)-Phe(4F)—OMe [Phe(4F)-Phe(4F)-Ome]
T4 bacteriophage [1]; in solution
  antiviral activity against T4 bacteriophage (in words): did not decrease the viral titer
